# Results from US20030055065A1, “Tricyclic amide and urea compounds useful for inhibition of G-protein function and for treatment of proliferative diseases” (priority 1993, published 2003).
# Biological target: T1, farnesyl protein transferase (FPT), partially purified from rat brain (Rattus norvegicus, UniProt Q02293+Q04631)
# T1 construct: were partially purified from rat brain by ammonium sulfate fractionation followed by Q-Sepharose
# Assay: Inhibition of farnesyl protein transferase (transfer of [3H]farnesyl to Ras-CVLS)
# Assay type: biochemical
# Conditions: (1.2) μM
# Procedure: 1. In vitro enzyme assays: Inhibition of farnesyl protein transferase and geranylgeranyl protein transferase.
# Human farnesyl protein transferase was also expressed in E. coli, using cDNA clones encoding both the α and β subunits. […] Human farnesyl protein transferase was partially-purified from the soluble protein fraction of E. coli as described above. […] Two forms of val^12-Ha-Ras protein were prepared as substrates for these enzymes, differing in their carboxy terminal sequence. One form terminated in cysteine-valine-leucine-serine (Ras-CVLS) the other in cystein-valine-leucine-leucine (Ras-CVLL). Ras-CVLS is a substrate for the farnesyl protein transferase while Ras-CVLL is a substrate for geranylgeranyl protein transferase I. The cDNAs encoding these proteins were constructed so that the proteins contain an amino-terminal extension of 6 histidine residues. Both proteins were expressed in Escherichia coli and purified using metal chelate affinity chromatography. The radiolabelled isoprenyl pyrophosphate substrates, [^3H]farnesyl pyrophosphate and [3H]geranylgeranyl pyrophosphate, were purchased from DuPont/New England Nuclear.
# The reaction was allowed to proceed for 30 minutes at room temperature and then stopped with 0.5 ml of 4% sodium dodecyl sulfate (SDS) followed by 0.5 ml of cold 30% trichloracetic acid (TCA). Samples were allowed to sit on ice for 45 minutes and precipitated Ras protein was then collected on GF/C filter paper mats using a Brandel cell harvester. […] Percent inhibition was calculated relative to the DMSO vehicle control.
# T1 sequence (Q02293 whole entry, one chain of several): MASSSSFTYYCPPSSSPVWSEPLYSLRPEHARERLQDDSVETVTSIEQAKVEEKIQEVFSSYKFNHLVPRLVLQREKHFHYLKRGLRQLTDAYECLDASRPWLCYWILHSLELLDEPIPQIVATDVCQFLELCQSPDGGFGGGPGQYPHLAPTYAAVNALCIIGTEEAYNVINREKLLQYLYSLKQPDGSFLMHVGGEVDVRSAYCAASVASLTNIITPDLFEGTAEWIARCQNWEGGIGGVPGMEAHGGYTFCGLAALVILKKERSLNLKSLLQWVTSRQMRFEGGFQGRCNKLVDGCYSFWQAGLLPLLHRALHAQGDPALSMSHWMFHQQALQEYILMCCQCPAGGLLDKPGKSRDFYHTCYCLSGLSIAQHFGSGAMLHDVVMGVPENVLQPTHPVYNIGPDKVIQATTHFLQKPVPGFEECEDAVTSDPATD
row,FPT inhibition at the concentration in parentheses,Compound
1,22 (1.2),O=C(Nc1cc[n+]([O-])cc1)N1CCC(=C2c3ccc(Cl)cc3CCc3cc(Cl)ccc32)CC1 [Example 422-A]

# Same assay, conditions: (1.3) μM
row,FPT inhibition at the concentration in parentheses,Compound
1,44(1.3),O=C(Cc1cc[n+]([O-])cc1)N1CCC(=C2c3ccc(Cl)cc3CCc3cc(F)cnc32)CC1 [Example 411-N]
2,29 (1.30),CN1CCC(CC(=O)N2CCC(=C3c4ccc(Cl)cc4CCc4cc(F)cnc43)CC2)CC1 [Example 411-R]

# Same assay, conditions: (3.3) μM
row,FPT inhibition at the concentration in parentheses,Compound
1,10 (3.3),O=C(Cc1cc[nH]c(=O)c1)N1CCC(=C2c3ccc(Cl)cc3CCc3cc(Br)cnc32)CC1 [Example 411-EE]

# Same assay, conditions: (4) μM
row,FPT inhibition at the concentration in parentheses,Compound
1,39 (4),CC(C)(C(=O)N1CCC(=C2c3ccc(Cl)cc3CCc3cc(F)cnc32)CC1)c1cc[n+]([O-])cc1 [Example 411-O]

# Same assay, conditions: (4.3) μM
row,FPT inhibition at the concentration in parentheses,Compound
1,33 (4.3),O=C(Cc1ccc[n+]([O-])c1)N1CCC(=C2c3ccc(Cl)cc3CCc3cc(F)cnc32)CC1 [Example 411-Q]

# Same assay, conditions: FPT IC50, enzyme inhibition
row,Compound,IC50 [µM]
1,O=C(Cc1ccc[n+]([O-])c1)N1CCN([C@@H]2c3ccc(Cl)cc3CCc3cccnc32)CC1 [Example 425-F],7
2,O=C(Cc1ccc[n+]([O-])c1)N1CCN([C@H]2c3ccc(Cl)cc3CCc3cccnc32)CC1 [Example 425-G],2.3

# Same assay, conditions: Ras-CVLS farnesylation, partially purified rat brain FPT; read-out: FPT IC50
row,IC50 [µM],Compound
1,1.16,CCc1cc2c(cc1Cl)C=Cc1cccnc1C2C1CCN(C(=O)Cc2ccncc2)CC1 (stereo not shown) [Example 362]
2,2.6,N#CCC(=O)N1CCC(=C2c3ccc(Cl)cc3CCc3cc(Br)cnc32)CC1 [Example 400-A]
3,1.7,CC1(C2CCN(C(=O)Cc3cc[n+]([O-])cc3)CC2)c2ccc(Cl)cc2CCc2cccnc21 (stereo not shown) [Example 401-A]
4,0.052,CC1(C2CCN(C(=O)Cc3ccc[n+]([O-])c3)CC2)c2ccc(Cl)cc2CCc2cc(Br)cnc21 (stereo not shown) [Example 410-C]
5,2.2,CC1(C2=CCN(C(=O)Cc3ccncc3)CC2)c2ccc(Cl)cc2CCc2cccnc21 (stereo not shown) [Example 410-F]
6,7,CN1CCN(CC(=O)N2CCC(=C3c4ccc(Cl)cc4CCc4cccnc43)CC2)CC1 [Example 410-H]
7,1.9,CN1CCN(CC(=O)N2CCC(=C3c4ccc(Cl)cc4CCc4cc(Br)cnc43)CC2)CC1 [Example 410-J]
8,2.9,O=C(Cc1ccncc1)N1CCC(C2c3ccc(Cl)cc3C([N+](=O)[O-])=Cc3cccnc32)CC1 (stereo not shown) [Example 410-L]
9,~12,CN1CCC(CC(=O)N2CCC(=C3c4ccc(Cl)cc4CCc4c3n(C)cc(Br)c4=O)CC2)CC1 [Example 410-M]
10,1.8,O=C(Cc1ccnc(-n2ccnc2)c1)N1CCC(=C2c3ccc(Cl)cc3CCc3cc(Br)cnc32)CC1 [Example 410-T]
11,1.17,CSc1cc(CC(=O)N2CCC(=C3c4ccc(Cl)cc4CCc4cc(Br)cnc43)CC2)ccn1 [Example 410-V]
12,0.7,CC1(C2CCN(C(=O)Cc3ccncc3)CC2)c2ccc(Cl)cc2CCc2cccnc21 (stereo not shown) [Example 410]
13,0.52,O=C(Cn1cncn1)N1CCC(=C2c3ccc(Cl)cc3CCc3cc(Br)cnc32)CC1 [Example 412]
14,1000,CCN(CC)c1cnc2c(c1)CCc1cc(Cl)ccc1C2=C1CCN(C(=O)Cc2ccncc2)CC1 [Example 424-A]
15,1.3,CCNc1cnc2c(c1)CCc1cc(Cl)ccc1C2=C1CCN(C(=O)Cc2ccncc2)CC1 [Example 424]

row,Compound,IC50 [µM]
1,CC(=O)Nc1cnc2c(c1)CCc1cc(Cl)ccc1C2=C1CCN(C(=O)Cc2ccncc2)CC1 [Example 403],1000
2,CS(=O)(=O)Nc1cnc2c(c1)CCc1cc(Cl)ccc1C2=C1CCN(C(=O)Cc2ccncc2)CC1 [Example 404],4.6

# Same assay, conditions: Table 22; no key shown; presumably % inhibition (concentration in μM)
row,"FPT IC50 (μM) column, second line printed as 'x (y)'",Compound
1,22 (4),CCN(CC)c1cnc2c(c1)CCc1cc(Cl)ccc1C2=C1CCN(C(=O)Cc2ccncc2)CC1 [Example 424-A]

# Same assay, conditions: at 12 μM
row,FPT inhibition,Compound
1,14 @12 μM %,O=C(c1c[nH]c2ccccc12)N1CCN(C2c3ccc(Cl)cc3CCc3cccnc32)CC1 (stereo not shown) [Example 368]

# Same assay, conditions: enzyme inhibition; read-out: FPT IC50
row,Compound,IC50 [µM]
1,CCCCNc1c(Br)cnc2c1CCc1cc(Cl)ccc1C2=C1CCN(C(=O)Cc2ccncc2)CC1 [Example 400-M],0.9
2,N#Cc1cnc2c(c1)CCc1cc(Cl)ccc1C2=C1CCN(C(=O)Cc2ccncc2)CC1 [Example 406],1.4
3,O=C(Cc1ccncc1)N1CCC(=C2c3ccc(Cl)cc3CCc3ccc(O)nc32)CC1 [Example 411-C],6
4,O=C(Cc1ccnc(OCc2ccccc2)c1)N1CCC(=C2c3ccc(Cl)cc3CCc3cc(Br)cnc32)CC1 [Example 411-DD],3.1
5,O=C(Cc1ccnc(N2CCCCC2)c1)N1CCC(=C2c3ccc(Cl)cc3CCc3cc(Br)cnc32)CC1 [Example 411-FF],1.8
6,O=C(Cc1ccncc1)N1CCC(=C2c3cc([N+](=O)[O-])c(Cl)cc3CCc3cccnc32)CC1 [Example 411-F],1.28
7,O=C(Cc1ccncc1)N1CCC(=C2c3ccc(Cl)cc3CCc3cc(Cl)ccc32)CC1 [Example 411-L],0.82
8,O=C(Cc1ccncc1)N1CCC(=C2c3ccc(Cl)cc3CCc3cc(F)cnc32)CC1 [Example 411-M],0.65
9,O=C(Cc1cc[n+]([O-])cc1)N1CCC(=C2c3ccc(Cl)cc3CCc3cc(F)cnc32)CC1 [Example 411-N],~2
10,CC(C)(C(=O)N1CCC(=C2c3ccc(Cl)cc3CCc3cc(F)cnc32)CC1)c1cc[n+]([O-])cc1 [Example 411-O],~5
11,O=C(Cc1ccc[n+]([O-])c1)N1CCC(=C2c3ccc(Cl)cc3CCc3cc(F)cnc32)CC1 [Example 411-Q],~10
12,CN1CCC(CC(=O)N2CCC(=C3c4ccc(Cl)cc4CCc4cc(F)cnc43)CC2)CC1 [Example 411-R],~4
13,CN1CCCC(CC(=O)N2CCC(=C3c4ccc(Cl)cc4CCc4cc(F)cnc43)CC2)C1 (stereo not shown) [Example 411-S],2.1
14,O=C(Cc1cccnc1)N1CCC(=C2c3ccc(Cl)cc3CCc3cc(Cl)cnc32)CC1 [Example 411-T],0.58
15,O=C(Cc1ccc[n+]([O-])c1)N1CCC(=C2c3ccc(Cl)cc3CCc3cc(Cl)cnc32)CC1 [Example 411-U],1.12
16,CN1CCCC(CC(=O)N2CCC(=C3c4ccc(Cl)cc4CCc4cc(Cl)cnc43)CC2)C1 (stereo not shown) [Example 411-V],0.27
17,CN1CCC(CC(=O)N2CCC(=C3c4ccc(Cl)cc4CCc4cc(Cl)cnc43)CC2)CC1 [Example 411-X],0.45
18,O=C(Cc1ccc[n+]([O-])c1)N1CCC(C2c3ccc(Cl)cc3CCc3cc(Br)cnc32)CC1 (stereo not shown) [Example 411-Z],1.5
19,O=C(Nc1ccccc1)N1CCC(=C2c3ccc(Cl)cc3CCc3c(Cl)ccnc32)CC1 [Example 414-A],1.9
20,O=C(Cc1cc[n+]([O-])cc1)N1CCC(=C2c3ccc(Cl)cc3C=Cc3cccnc32)CC1 [Example 417-A],0.85
21,CC(=O)ON=C1Cc2cccnc2C(=C2CCN(C(=O)Cc3ccncc3)CC2)c2ccc(Cl)cc21 [Example 420],0.23
22,O=C(Nc1cc[n+]([O-])cc1)N1CCC(=C2c3ccc(Cl)cc3CCc3cc(Cl)ccc32)CC1 [Example 422-A],> 1.2
23,O=C(Cc1cc[n+]([O-])cc1)N1CCC(=C2c3ccc(Cl)cc3CCc3cc(Cl)ccc32)CC1 [Example 422],0.6

# Other lines, results leading:
row,IC50 [µM],Compound
1,2.2,CC(C)(C(=O)N1CCN(C2c3ccc(Cl)cc3CCc3cccnc32)CC1)c1cc[n+]([O-])cc1 (stereo not shown) [Example 425-A]
2,1.26,CC(C)(C(=O)N1CCN(C2c3ccc(Cl)cc3CCc3cccnc32)CC1)c1ccc[n+]([O-])c1 (stereo not shown) [Example 425-C]
3,1.8,CN1CCC(CC(=O)N2CCN([C@@H]3c4ccc(Cl)cc4CCc4cccnc43)CC2)CC1 [Example 425-M]
4,0.64,CN1CCC(CC(=O)N2CCN([C@H]3c4ccc(Cl)cc4CCc4cccnc43)CC2)CC1 [Example 425-N]
5,1.7,CN1CCCC(CC(=O)N2CCN([C@@H]3c4ccc(Cl)cc4CCc4cccnc43)CC2)C1 (stereo partly shown) [Example 425-R]
6,0.6,CN1CCCC(CC(=O)N2CCN([C@H]3c4ccc(Cl)cc4CCc4cccnc43)CC2)C1 (stereo partly shown) [Example 425-S]
7,2.2,O=C(Nc1ccc[n+]([O-])c1)N1CCN(C2c3ccc(Cl)cc3CCc3cccnc32)CC1 (stereo not shown) [Example 427-A]
8,0.21,O=C(Nc1cc[n+]([O-])cc1)N1CCN(C2c3ccc(Cl)cc3CCc3cc(Br)cnc32)CC1 (stereo not shown) [Example 427-B]
9,0.24,O=C(Nc1ccc[n+]([O-])c1)N1CCN(C2c3ccc(Cl)cc3CCc3cc(Br)cnc32)CC1 (stereo not shown) [Example 427-C]
10,1.8,O=C(Nc1cc[n+]([O-])cc1)N1CCN(C2c3ccc(Cl)cc3CCc3cccnc32)CC1 (stereo not shown) [Example 427]
11,1.1,O=C(CC1CCCNC1)N1CCN(C2c3ccc(Cl)cc3CCc3cccnc32)CC1 (stereo not shown) [Example 428-A]
12,1.27,CCN1CCC(CC(=O)N2CCN(C3c4ccc(Cl)cc4CCc4cccnc43)CC2)CC1 (stereo not shown) [Example 429]
13,7,COC(=O)N1CCCC(CC(=O)N2CCN(C3c4ccc(Cl)cc4CCc4cccnc43)CC2)C1 (stereo not shown) [Example 430-A]
14,1.3,COC(=O)N1CCC(CC(=O)N2CCN(C3c4ccc(Cl)cc4CCc4cccnc43)CC2)CC1 (stereo not shown) [Example 430]
15,1.05,CNC(=O)N1CCC(CC(=O)N2CCN(C3c4ccc(Cl)cc4CCc4cccnc43)CC2)CC1 (stereo not shown) [Example 431-A]
16,0.92,CCNC(=O)N1CCC(CC(=O)N2CCN(C3c4ccc(Cl)cc4CCc4cccnc43)CC2)CC1 (stereo not shown) [Example 431-B]
17,0.88,CCCNC(=O)N1CCC(CC(=O)N2CCN(C3c4ccc(Cl)cc4CCc4cccnc43)CC2)CC1 (stereo not shown) [Example 431-C]
18,1,CC(C)(C)NC(=O)N1CCC(CC(=O)N2CCN(C3c4ccc(Cl)cc4CCc4cccnc43)CC2)CC1 (stereo not shown) [Example 431-D]
19,0.88,CNC(=S)N1CCC(CC(=O)N2CCN(C3c4ccc(Cl)cc4CCc4cccnc43)CC2)CC1 (stereo not shown) [Example 431-E]
20,1.75,NC(=O)N1CCCC(CC(=O)N2CCN(C3c4ccc(Cl)cc4CCc4cccnc43)CC2)C1 (stereo not shown) [Example 431-F]
